ChEMBL document CHEMBL1122585, “Synthesis of a novel class of heteroaromatic amino acids and their use in the preparation of analogues of luteinizing hormone-releasing hormone” (J Med Chem, 1984)

Test system: not listed separately
Test: Acid dissociation constant was determined
Type: ADME

Compound | pKa
NC(Cc1nc2ccccc2[nH]1)C(=O)O (stereo not drawn) | 4.7
Cc1cc2nc(CC(N)C(=O)O)[nH]c2cc1C (stereo not drawn) | 5.4
NC(Cc1nc2cc(Cl)c(Cl)cc2[nH]1)C(=O)O (stereo not drawn) | 3.4
NC(Cc1nc2c([nH]1)CCCC2)C(=O)O (stereo not drawn) | 7.5

Species: Rattus norvegicus
Test: Antifertility effect in adult female rats by estrus suppression assay
Type: functional

Compound | Potency
Cc1cc2nc(C[C@@H](NC(=O)[C@H](Cc3ccc(O)cc3)NC(=O)[C@H](CO)NC(=O)[C@H](Cc3c[nH]c4ccccc34)NC(=O)[C@H](Cc3c[nH]cn3)NC(=O)[C@@H]3CCC(=O)N3)C(=O)N[C@@H](CC(C)C)C(=O)N[C@@H](CCCN=C(N)N)C(=O)N3CCC[C@H]3C(=O)NCC(N)=O)[nH]c2cc1C | 1.6
CCNC(=O)[C@@H]1CCCN1C(=O)[C@H](CCCN=C(N)N)NC(=O)[C@H](CC(C)C)NC(=O)[C@@H](Cc1nc2c(ccc3ccccc32)[nH]1)NC(=O)[C@H](Cc1ccc(O)cc1)NC(=O)[C@H](CO)NC(=O)[C@H](Cc1c[nH]c2ccccc12)NC(=O)[C@H](Cc1c[nH]cn1)NC(=O)[C@@H]1CCC(=O)N1 | 0.8
CCNC(=O)[C@@H]1CCCN1C(=O)[C@H](CCCN=C(N)N)NC(=O)[C@H](CC(C)C)NC(=O)[C@@H](Cc1nc2ccccc2[nH]1)NC(=O)[C@H](Cc1ccc(O)cc1)NC(=O)[C@H](CO)NC(=O)[C@H](Cc1c[nH]c2ccccc12)NC(=O)[C@H](Cc1c[nH]cn1)NC(=O)[C@@H]1CCC(=O)N1 | 1
CC(C)C[C@H](NC(=O)[C@@H](Cc1nc2ccccc2[nH]1)NC(=O)[C@H](Cc1ccc(O)cc1)NC(=O)[C@H](CO)NC(=O)[C@H](Cc1c[nH]c2ccccc12)NC(=O)[C@H](Cc1c[nH]cn1)NC(=O)[C@@H]1CCC(=O)N1)C(=O)N[C@@H](CCCN=C(N)N)C(=O)N1CCC[C@H]1C(=O)NCC(N)=O | 0.3
CC(C)C[C@H](NC(=O)[C@@H](Cc1nc2ccccc2s1)NC(=O)[C@H](Cc1ccc(O)cc1)NC(=O)[C@H](CO)NC(=O)[C@H](Cc1c[nH]c2ccccc12)NC(=O)[C@H](Cc1c[nH]cn1)NC(=O)[C@@H]1CCC(=O)N1)C(=O)N[C@@H](CCCN=C(N)N)C(=O)N1CCC[C@H]1C(=O)NCC(N)=O | 1
CC(C)C[C@H](NC(=O)[C@@H](Cc1nc2ccccc2o1)NC(=O)[C@H](Cc1ccc(O)cc1)NC(=O)[C@H](CO)NC(=O)[C@H](Cc1c[nH]c2ccccc12)NC(=O)[C@H](Cc1c[nH]cn1)NC(=O)[C@@H]1CCC(=O)N1)C(=O)N[C@@H](CCCN=C(N)N)C(=O)N1CCC[C@H]1C(=O)NCC(N)=O | 1.2
CCNC(=O)[C@@H]1CCCN1C(=O)[C@H](CCCN=C(N)N)NC(=O)[C@H](CC(C)C)NC(=O)[C@@H](Cc1nc2c([nH]1)CCCC2)NC(=O)[C@H](Cc1ccc(O)cc1)NC(=O)[C@H](CO)NC(=O)[C@H](Cc1c[nH]c2ccccc12)NC(=O)[C@H](Cc1c[nH]cn1)NC(=O)[C@@H]1CCC(=O)N1 | 1.4
CC(C)C[C@H](NC(=O)[C@@H](Cc1nc2cc(Cl)c(Cl)cc2[nH]1)NC(=O)[C@H](Cc1ccc(O)cc1)NC(=O)[C@H](CO)NC(=O)[C@H](Cc1c[nH]c2ccccc12)NC(=O)[C@H](Cc1c[nH]cn1)NC(=O)[C@@H]1CCC(=O)N1)C(=O)N[C@@H](CCCN=C(N)N)C(=O)N1CCC[C@H]1C(=O)NCC(N)=O | 0.9
CC(C)C[C@H](NC(=O)[C@@H](Cc1nc2c([nH]1)CCCC2)NC(=O)[C@H](Cc1ccc(O)cc1)NC(=O)[C@H](CO)NC(=O)[C@H](Cc1c[nH]c2ccccc12)NC(=O)[C@H](Cc1c[nH]cn1)NC(=O)[C@@H]1CCC(=O)N1)C(=O)N[C@@H](CCCN=C(N)N)C(=O)N1CCC[C@H]1C(=O)NCC(N)=O | 0.6
